We go through three compounds from US20110059953A1, “COMPOUNDS FOR USE IN STABILIZING P53 MUTANTS” (priority 2008, published 2011).

The term Kd denotes the free concentration of one partner at which half of the binding sites on the other are occupied at equilibrium, for simple one-to-one binding. A word on the ΔTm: it is the shift of the melting midpoint relative to a reference.

Assay [1] has as its target T1, T-p53C-Y220C (Homo sapiens, UniProt P04637, M133L/N239Y/N268D/V203A/Y220C).
T1 construct: For all other experiments, the DNA coding for residues 94-312 of T-p53C was inserted into a modified pET24a(+) vector; 6xHis tag + B. stearothermophilus dihydrolipoyl acetyltransferase lipoyl domain (aa 1-85) + TEV site (N, cleaved yes); made in house; host or cells: Escherichia coli BL21 (DE3) or C41 (DE3)
Nature of the assay: Equilibrium sedimentation analytical ultracentrifugation (AUC) binding. From the text: Analytical centrifugation studies the distribution of molecules under gravity force. In equilibrium sedimentation experiment the solute concentrates at the bottom of the cell and forms a concentration gradient. The steepness of this gradient depends on the molecular weight of the solute, the heavier the molecule the steeper the gradient. Small molecules have a molecular weight around 500 Da, and p53 core domain is large protein molecule of 24.5 kDa. Under the experimental conditions chosen, small molecules form a very shallow, practically negligible gradient, while p53 presents a very well defined sedimentation profile. […] By monitoring the distribution of the small molecule via absorbance at wavelengths above 300 nm (the ligands must absorb light in this spectral range for the method to work) so that signal is not affected by the absorbance of the protein (e.g., 310, 340 and 380 nm), it is possible to determine if the small molecule binds to the protein, and in many cases measure the dissociation constant. […]
Equilibrium sedimentation experiments were performed on a Beckman XL-I ultracentrifuge using Ti-50 rotor and 6-sector cells. at speeds of 30,000 and 40,000 rpm at 10° C. Up to 21 samples were analysed simultaneously. […] The samples contained ligand at concentration of 15 μM-40 μM, with absorbance of 0.3-0.5 at one of the selected wavelengths and 100 μM T-p53-Y220C.

For assay [2], the target named is T1, T-p53C-Y220C. Nature of the assay: Thermal denaturation using capillary DSC. To be noted: for ΔTm: increase in Tm on adding 250 μM of the test compound, 20 μM protein. It is filed as binding. The protocol:
Differential Scanning calorimetry (DSC) was used to probe the stabilising effect of the ligands on […]. For a reversible two-state system, the melting temperature, Tm, is the transition temperature where the folded and unfolded states are equally populated.
DSC experiments were performed using a Microcal VP-Capillary DSC instrument (Microcal, Amherst, Mass.) with an active cell volume of ˜125 μl. Protein samples were buffer exchanged into 25 mM NaPi, pH 7.2, 150 mM NaCl, 5 mM DTT. This buffer + the respective concentration of ligand/DMSO was used for baseline scans, so that the only difference between sample and reference cell or sample cell in the measurement and both cells in the baseline scan is the presence of the protein. A final concentration of 20 μM T-p53C-Y220C was used. A pressure of 2.5 bars (nitrogen) was applied to the cell. Temperatures from 10 to 85° C. were scanned at a rate of 250° C./h, with a filtering period of 4 seconds and feedback gain/mode set at medium. Data were analysed with ORIGIN software (Microcal).
The following tables show the results of the thermal denaturation studies using capillary DSC, where ΔTm is the increase in Tm on adding 250 μM of the test compound. The Dunnett significance test (P) value given is the calculated probability that the change in Tm is insignificant.

For assay [3], the target named is T1, T-p53C-Y220C. Nature of the assay: 1H/15N-HSQC NMR chemical shift binding (KD NMR). As to the method:
Uniformly ^15N-labelled core domains of T-p53C-Y220C was expressed and purified according to the above described protocol. The low molecular-weight compounds were dissolved in d^6-DMSO to make 10 mM stock solutions. To screen compound mixtures by chemical shift mapping, 10 μl of each of 4 different compounds were mixed together and 25 μl of this mixture was added to 25 μl of D2O and 500 μl of 70 μM T-p53C-Y220C (in 25 mM NaPi, 150 mM NaCl and 5 mM DTT, pH 7.2 ). […] NMR samples were freshly prepared and kept sealed under argon after degassing by repeated cycles of pumping the NMR tube under low pressure (while gently tapping the tube) and returning to atmospheric pressure using a stream of argon gas. This was done to maintain sample stability.
Using Bruker's TopSpin 2.0 software, the number of complex points in t1 was doubled by forward complex linear prediction and shifted squared sine bell window functions were applied to both dimensions prior to zero filling and Fourier transformation. A digital resolution of 2.0 Hz/point in the ^1H frequency dimension and 4.7 Hz/point in the ^15N frequency dimension was used. […] An in-house script was used to analyse chemical shift differences and map these onto PDB protein structures.
For certain compounds an array of different concentrations were used to derive KD values (KD NMR) by fitting a saturation binding equation (Δδ=c+a*[L]/(KD+[L])) to the concentration-dependent chemical shift changes of the relevant shifting peaks.

Assay [4] deals with T1, T-p53C-Y220C. Nature of the assay: Thermal denaturation using fluorescence (Sypro Orange). It is filed as binding. The conditions noted are these: further studies on compounds described above; 10 μM protein. As to the method:
This was by an adaption of the classical procedure (e.g. ref A6). Thermal unfolding was monitored by the binding of the dye Sypro Orange (5×) using a Rotor-gene 6000 (Corbett Life Science) at 270 K/h in 25 mM NaPi, 150 mM NaCl and 5 mM DTT, pH 7.2 with a protein concentration of 10 μM.
(§1) Where listed, S.E. is the calculated standard error.
as §1

The target in assay [5] is T1, T-p53C-Y220C. Nature of the assay: Melting temperature of T-p53C-Y220C, method not stated. It is filed as binding.
[6] abbreviates: KD (@ 20° C.) μM, further NMR studies, some revised values.

`CCn1c2ccccc2c2cc(CNC)ccc21` [PK083]: the Kd on T-p53C-Y220C [1] is 170 µM; at T-p53C-Y220C [2] (at 316-318 K, read-out: approximate KD from DSC stabilization fit), ~140 µM; on T-p53C-Y220C [3] (setting [6]) it was 114 µM; on T-p53C-Y220C [3] (KD (@ 20° C.), 1H/15N-HSQC) it was 167 µM. Moreover, at T-p53C-Y220C [2], the ΔTm was 0.75 °C. For the same compound, the “ΔTm (° C.)” value on T-p53C-Y220C [4] was determined as 0.76 °C.

For `CCn1c2ccccc2c2cc(C3CC4CN(C)C(=O)C45CCCN35)ccc21` (stereo not shown) [PK226], at T-p53C-Y220C [2], the ΔTm amounted to 1.11 °C. Besides, the Kd on T-p53C-Y220C [3] (setting [6]) came to 113 µM. Further, the “ΔTm (° C.)” value at T-p53C-Y220C [4] came out at 1.0 °C.

In the case of `NC(=O)c1c[nH]c2ccccc12` [1H-indole-3-carboxamide], on T-p53C-Y220C [5], the “effect on melting temperature” value is given as “raise its melting temperature”.
